Assay results as given in PubChem BioAssay (NCI).
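Growth conditions: 96-well plates. Treatment: test compound, 48 hours, 5 concentrations. Analysis: linear interpolation between bracketing concentrations; unreached endpoints set to highest concentration. TGI is the concentration that stops growth completely.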

Assays:
Experiment in all cases: inhibition of tumour cell growth, NCI panel, 48 h
UO-31 renal = system: UO-31 renal
OVCAR-8 ovarian = system: OVCAR-8 ovarian
MDA-MB-435 = system: MDA-MB-435
COLO 205 colon = system: COLO 205 colon
K-562 leukemia = system: K-562 leukemia
MDA-N = system: MDA-N
UACC-62 melanoma = system: UACC-62 melanoma
M14 melanoma = system: M14 melanoma
SK-MEL-2 melanoma = system: SK-MEL-2 melanoma
CCRF-CEM leukemia = system: CCRF-CEM leukemia
SF-295 CNS = system: SF-295 CNS
U251 CNS = system: U251 CNS
A549 NSCLC = system: A549 NSCLC

COc1cc(/C=C2/C(=O)N(C(=O)c3ccccc3O)N=C2C)cc(OC)c1OC
TGI (UO-31 renal): 6.81 µM
TGI (OVCAR-8 ovarian): > 100 µM
TGI (MDA-MB-435): > 100 µM
TGI (COLO 205 colon): > 100 µM
TGI (K-562 leukemia): > 100 µM
TGI (MDA-N): > 100 µM
TGI (UACC-62 melanoma): 16.9 µM
TGI (M14 melanoma): > 100 µM
TGI (SK-MEL-2 melanoma): > 29.4 µM
TGI (CCRF-CEM leukemia): > 100 µM
TGI (SF-295 CNS): > 100 µM
TGI (U251 CNS): > 100 µM
TGI (A549 NSCLC): > 100 µM

Cc1c(-c2nc3ccccc3[nH]2)c(=O)n(-c2ccccc2)n1C
TGI (UO-31 renal): > 100 µM
TGI (OVCAR-8 ovarian): > 100 µM
TGI (MDA-MB-435): > 100 µM
TGI (COLO 205 colon): > 100 µM
TGI (K-562 leukemia): > 100 µM
TGI (MDA-N): > 100 µM
TGI (UACC-62 melanoma): > 100 µM
TGI (M14 melanoma): > 100 µM
TGI (SK-MEL-2 melanoma): > 100 µM
TGI (CCRF-CEM leukemia): > 100 µM
TGI (SF-295 CNS): > 100 µM
TGI (U251 CNS): > 100 µM
TGI (A549 NSCLC): > 100 µM

Cc1nc(-c2ccc([N+](=O)[O-])cc2)cn2c1nc1ccccc12
TGI (UO-31 renal): > 100 µM
TGI (OVCAR-8 ovarian): > 100 µM
TGI (MDA-MB-435): > 100 µM
TGI (COLO 205 colon): > 100 µM
TGI (K-562 leukemia): > 100 µM
TGI (MDA-N): > 100 µM
TGI (UACC-62 melanoma): 53.8 µM
TGI (M14 melanoma): > 100 µM
TGI (SK-MEL-2 melanoma): 69.2 µM
TGI (CCRF-CEM leukemia): > 100 µM
TGI (SF-295 CNS): > 100 µM
TGI (U251 CNS): > 100 µM
TGI (A549 NSCLC): > 100 µM

CN(C)CCCOC(=O)C(c1ccccc1)C1(O)CCSCC1 (stereo not given)
TGI (UO-31 renal): > 100 µM
TGI (OVCAR-8 ovarian): > 100 µM
TGI (MDA-MB-435): > 100 µM
TGI (COLO 205 colon): > 100 µM
TGI (K-562 leukemia): > 100 µM
TGI (MDA-N): > 100 µM
TGI (UACC-62 melanoma): > 100 µM
TGI (M14 melanoma): > 100 µM
TGI (SK-MEL-2 melanoma): > 100 µM
TGI (CCRF-CEM leukemia): > 100 µM
TGI (SF-295 CNS): > 100 µM
TGI (U251 CNS): > 100 µM
TGI (A549 NSCLC): > 100 µM

Nc1ccc2nc(-c3ccccn3)c(-c3ccccn3)nc2c1
TGI (UO-31 renal): > 100 µM
TGI (OVCAR-8 ovarian): > 100 µM
TGI (MDA-MB-435): > 100 µM
TGI (COLO 205 colon): > 100 µM
TGI (K-562 leukemia): > 100 µM
TGI (MDA-N): > 100 µM
TGI (UACC-62 melanoma): > 100 µM
TGI (M14 melanoma): > 100 µM
TGI (SK-MEL-2 melanoma): > 100 µM
TGI (CCRF-CEM leukemia): > 100 µM
TGI (SF-295 CNS): > 100 µM
TGI (U251 CNS): > 100 µM
TGI (A549 NSCLC): > 100 µM

CN1C(=O)C2C(=O)N(Cc3ccccc3)CC(=O)N2c2cccnc21 (stereo not given)
TGI (UO-31 renal): > 100 µM
TGI (OVCAR-8 ovarian): > 100 µM
TGI (MDA-MB-435): > 100 µM
TGI (COLO 205 colon): > 100 µM
TGI (K-562 leukemia): > 100 µM
TGI (MDA-N): > 100 µM
TGI (UACC-62 melanoma): > 100 µM
TGI (M14 melanoma): > 100 µM
TGI (SK-MEL-2 melanoma): > 100 µM
TGI (CCRF-CEM leukemia): > 100 µM
TGI (SF-295 CNS): > 100 µM
TGI (U251 CNS): > 100 µM
TGI (A549 NSCLC): > 100 µM

OC1C2[C@@H](O)CCCN2C[C@@H](O)[C@H]1O (stereo not given in full)
TGI (UO-31 renal): > 100 µM
TGI (OVCAR-8 ovarian): > 100 µM
TGI (MDA-MB-435): > 100 µM
TGI (COLO 205 colon): > 100 µM
TGI (K-562 leukemia): > 100 µM
TGI (MDA-N): > 100 µM
TGI (UACC-62 melanoma): > 100 µM
TGI (M14 melanoma): > 100 µM
TGI (SK-MEL-2 melanoma): > 100 µM
TGI (CCRF-CEM leukemia): > 100 µM
TGI (SF-295 CNS): > 100 µM
TGI (U251 CNS): > 100 µM
TGI (A549 NSCLC): > 100 µM

Cc1c(F)c(N)c2c(=O)cc(-c3ccc(NC(=O)CN(C)C)c(F)c3)oc2c1F
TGI (UO-31 renal): > 100 µM
TGI (OVCAR-8 ovarian): > 100 µM
TGI (MDA-MB-435): > 100 µM
TGI (COLO 205 colon): > 100 µM
TGI (K-562 leukemia): 98.9 µM
TGI (MDA-N): > 100 µM
TGI (UACC-62 melanoma): > 94.2 µM
TGI (M14 melanoma): > 100 µM
TGI (SK-MEL-2 melanoma): > 100 µM
TGI (CCRF-CEM leukemia): > 76.6 µM
TGI (SF-295 CNS): > 100 µM
TGI (U251 CNS): > 81.1 µM
TGI (A549 NSCLC): > 100 µM

COc1cccc(-c2cc(=O)c3ccccc3o2)c1N
TGI (UO-31 renal): > 100 µM
TGI (OVCAR-8 ovarian): > 100 µM
TGI (MDA-MB-435): > 100 µM
TGI (COLO 205 colon): > 100 µM
TGI (K-562 leukemia): > 100 µM
TGI (MDA-N): > 100 µM
TGI (UACC-62 melanoma): > 100 µM
TGI (M14 melanoma): > 100 µM
TGI (SK-MEL-2 melanoma): > 100 µM
TGI (CCRF-CEM leukemia): > 100 µM
TGI (SF-295 CNS): > 100 µM
TGI (U251 CNS): > 100 µM
TGI (A549 NSCLC): > 100 µM

COc1cc(O)c(/C=N/N=C(\N)NO)c(OC)c1
TGI (UO-31 renal): > 10 µM
TGI (OVCAR-8 ovarian): > 10 µM
TGI (MDA-MB-435): > 10 µM
TGI (COLO 205 colon): > 10 µM
TGI (K-562 leukemia): > 10 µM
TGI (MDA-N): > 10 µM
TGI (UACC-62 melanoma): > 10 µM
TGI (M14 melanoma): > 10 µM
TGI (SK-MEL-2 melanoma): > 10 µM
TGI (CCRF-CEM leukemia): > 10 µM
TGI (SF-295 CNS): > 10 µM
TGI (U251 CNS): > 10 µM
TGI (A549 NSCLC): > 10 µM
